Where two headings read alike, the source gives them in different places.
Assays:
carbonic anhydrase II = target: T1, carbonic anhydrase II (Bos taurus, UniProt P00921); assay: DNSA fluorescence competition binding assay for carbonic anhydrase II; conditions: in situ hit of FIG. 4 screen; enzyme species not stated at the place (bovine CA-II used for the screen and binding constants)
T1 construct: Carbonic anhydrase II from bovine erythrocytes; purchased Sigma-Aldrich C2522; host or cells: bovine erythrocytes (natural source)
T1 sequence (P00921 whole entry): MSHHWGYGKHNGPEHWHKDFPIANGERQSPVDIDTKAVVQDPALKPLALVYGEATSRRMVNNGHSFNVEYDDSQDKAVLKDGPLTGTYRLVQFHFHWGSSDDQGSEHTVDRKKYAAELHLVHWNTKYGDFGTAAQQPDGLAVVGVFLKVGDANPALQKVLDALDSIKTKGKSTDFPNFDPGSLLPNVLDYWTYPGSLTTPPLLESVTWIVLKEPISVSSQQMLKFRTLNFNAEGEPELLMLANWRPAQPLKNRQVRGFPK
Source text: (§1) General. Carbonic anhydrase II from bovine erythrocytes (Sigma-Aldrich, catalog number C2522; lot number 083K9295, 4,014 Wilbur-Anderson units/mg, 90% protein content by Biuret) was used for in situ click chemistry experiments and for the determination of binding constants. We tested the protein by SDS gel electrophoresis and found it to display a single band corresponding to 29-30,000 molecular weight units. Carbonic anhydrase II from human erythrocytes (Sigma Aldrich, catalog number C-6165, 4,260 wilbur-anderson units/mg) was used for the determination of binding affinities for the human enzyme. All fluorescence measurements were performed on a SPECTRA MAX GEMINI fluorescence plate reader at 37° C. […]
(§2) General. The fluorescence competition assay developed by Whitesides et al. (J. Am. Chem. Soc. 1994, 116, 5057) and J. C. […] The assay is based on the observation that the only fluorescence signal detected at 460 nm upon excitation at 290 nm, an absorption minimum for DNSA, is that of the DNSA·CA complex. With increasing sample concentration the fluorescence intensity due to DNSA·CA decreases as a result of competition with the test compound, allowing the determination of dissociation constants from Scatchard plots. […] The Kd values were determined from Scatchard plots using the equation below as described by Whitesides et.al. [CA·Inh]/[CA]tot·[Inh]=K11inh−K11inh{[CA·Inh]+[CA·DNSA]}/([CA]tot) […]

[1] = target: T2, human carbonic anhydrase II (Homo sapiens, UniProt P00918); assay: Titration of human carbonic anhydrase II with DNSA (fluorescence); type: binding; conditions: enzyme 200 nM in pH 7.4 phosphate buffer, titrated with DNSA; read-out: dissociation constant (Kd) of CA·DNSA
T2 construct: Carbonic anhydrase II from human erythrocytes; purchased Sigma Aldrich C-6165; host or cells: human erythrocytes (natural source)
Source text: as §1, §2

[2] = target: T3, bovine carbonic anhydrase II (Bos taurus, UniProt P00921); assay: Titration of bovine carbonic anhydrase II with DNSA (fluorescence); type: binding
T3 construct: Carbonic anhydrase II from bovine erythrocytes; purchased Sigma-Aldrich C2522; host or cells: bovine erythrocytes (natural source)
T3 sequence (P00921 whole entry): as above
Source text: as §1, §2

Kd [1] [nM] | Kd ([2]; determined by titration experiments, value used in the mass balance, enzyme species not stated, read-out: dissociation constant Kd for DNSA) [nM] | Kd ([2]; enzyme 200 nM in pH 7.4 phosphate buffer, titrated with DNSA, read-out: dissociation constant (Kd) of CA·DNSA) [nM] | Compound | Kd (carbonic anhydrase II) [nM]
 |  |  | CC(C)[C@@H](C(=O)NCc1cc(F)ccn1)n1cc(-c2ccc(S(N)(=O)=O)cc2)nn1 [the product] | 0.5
425 | 390 | 393 | CN(C)c1cccc2c(S(N)(=O)=O)cccc12 [DNSA] | 

Reference: patent US20060269942A1, “In situ click chemistry method for screening high affinity molecular imaging probes” (priority 2005, published 2006)
